According to ChEMBL document CHEMBL1135359, “Antifungal sordarins. Synthesis and structure-activity relationships of 3',4'-fused dioxolane and dioxane derivatives” (2002):
In brackets after ≈: the same amount, converted by molar mass.

Key:
Assay type in all cases: functional
Nakaseomyces glabratus = assay: In vitro antifungal activity for Candida glabrata 2375E
Candida albicans [1] = assay: In vitro antifungal activity for Candida albicans 2005E
Candida albicans [2] = assay: In vitro antifungal activity for Candida albicans 2402E
Candida albicans [3] = assay: In vitro antifungal activity for Candida albicans 4711E
Kluyveromyces marxianus = assay: In vitro antifungal activity for Candida pseudotropicalis 2371E
Candida tropicalis = assay: In vitro antifungal activity for Candida tropicalis 2808E
Cryptococcus neoformans = assay: In vitro antifungal activity for Cryptococcus neoformans 2867E

| SMILES | MIC (Nakaseomyces glabratus) | MIC (Candida albicans [1]) | MIC (Candida albicans [2]) | MIC (Candida albicans [3]) | MIC (Kluyveromyces marxianus) | MIC (Candida tropicalis) | MIC (Cryptococcus neoformans) |
| --- | --- | --- | --- | --- | --- | --- | --- |
| C/C=C/C=C(\C)C(=O)O[C@H]1[C@H](O)[C@H](OCC23C[C@@H]4[C@H](C)CC[C@H]4C4(C=O)CC2C=C(C(C)C)C34C(=O)O)O[C@H](C)[C@H]1OC (stereo partly specified) | > 125 µg/mL | 0.015 µg/mL (≈ 0.025 µM) | 0.03 µg/mL (≈ 0.0499 µM) | 0.25 µg/mL (≈ 0.416 µM) | 0.03 µg/mL (≈ 0.0499 µM) | 0.06 µg/mL (≈ 0.0999 µM) | 0.25 µg/mL (≈ 0.416 µM) |
| CC(C)C1=CC2CC3(C=O)[C@@H]4CC[C@@H](C)[C@H]4CC2(CO[C@@H]2C[C@@H]4OC(C)(C)O[C@@H]4[C@@H](C)O2)C13C(=O)O (stereo partly specified) | > 125 µg/mL | 2 µg/mL (≈ 3.98 µM) |  | 4 µg/mL (≈ 7.96 µM) | 4 µg/mL (≈ 7.96 µM) | 16 µg/mL (≈ 31.8 µM) | > 125 µg/mL |
| CC(C)C1=CC2CC3(C=O)[C@@H]4CC[C@@H](C)[C@H]4CC2(CO[C@H]2C[C@@H]4OC(C)(C)CO[C@@H]4[C@@H](C)O2)C13C(=O)O (stereo partly specified) | > 125 µg/mL | 0.015 µg/mL (≈ 0.029 µM) | 0.12 µg/mL (≈ 0.232 µM) | 0.25 µg/mL (≈ 0.484 µM) | 0.03 µg/mL (≈ 0.0581 µM) | 1 µg/mL (≈ 1.94 µM) | 31 µg/mL (≈ 60 µM) |
| CC(C)C1=CC2CC3(C=O)[C@@H]4CC[C@@H](C)[C@H]4CC2(CO[C@@H]2O[C@H](C)[C@H]4OC(C)(C)OC4[C@H]2O)C13C(=O)O (single isomer, unassigned) | > 125 µg/mL | 2 µg/mL (≈ 3.86 µM) | 8 µg/mL (≈ 15.4 µM) | 8 µg/mL (≈ 15.4 µM) | 2 µg/mL (≈ 3.86 µM) | 31 µg/mL (≈ 59.8 µM) | > 125 µg/mL |
| CC(C)C1=CC2CC3(C=O)[C@@H]4CC[C@@H](C)[C@H]4CC2(CO[C@@H]2O[C@H](C)[C@H]4OC(=S)OC4[C@@H]2O)C13C(=O)O (single isomer, unassigned) | 125 µg/mL (≈ 240 µM) | 31 µg/mL (≈ 59.5 µM) | 62 µg/mL (≈ 119 µM) | 62 µg/mL (≈ 119 µM) | 31 µg/mL (≈ 59.5 µM) | > 125 µg/mL | 16 µg/mL (≈ 30.7 µM) |

Now those with a lower MIC (Nakaseomyces glabratus), led by results:

| MIC (Nakaseomyces glabratus) | MIC (Candida albicans [1]) | MIC (Candida albicans [2]) | MIC (Candida albicans [3]) | MIC (Kluyveromyces marxianus) | MIC (Candida tropicalis) | MIC (Cryptococcus neoformans) | SMILES |
| --- | --- | --- | --- | --- | --- | --- | --- |
| 62 µg/mL (≈ 123 µM) | 0.03 µg/mL (≈ 0.0595 µM) |  | 0.5 µg/mL (≈ 0.991 µM) | 0.5 µg/mL (≈ 0.991 µM) | 1 µg/mL (≈ 1.98 µM) | 16 µg/mL (≈ 31.7 µM) | CC1OC2[C@H](O)[C@H](OCC34C[C@@H]5[C@H](C)CC[C@H]5C5(C=O)CC3C=C(C(C)C)C45C(=O)O)O[C@H](C)[C@H]2O1 (single isomer, unassigned) |
| 31 µg/mL (≈ 61.7 µM) | < 0.001 µg/mL | 0.008 µg/mL (≈ 0.0159 µM) | 0.004 µg/mL (≈ 0.00796 µM) | 0.004 µg/mL (≈ 0.00796 µM) | 0.12 µg/mL (≈ 0.239 µM) | 8 µg/mL (≈ 15.9 µM) | CC(C)C1=CC2CC3(C=O)[C@@H]4CC[C@@H](C)[C@H]4CC2(CO[C@H]2C[C@@H]4OC(C)(C)O[C@@H]4[C@@H](C)O2)C13C(=O)O (stereo partly specified) |
| 31 µg/mL (≈ 59.8 µM) | 0.12 µg/mL (≈ 0.231 µM) | 0.5 µg/mL (≈ 0.964 µM) | 0.12 µg/mL (≈ 0.231 µM) | 0.06 µg/mL (≈ 0.116 µM) | 1 µg/mL (≈ 1.93 µM) | 125 µg/mL (≈ 241 µM) | CC(C)C1=CC2CC3(C=O)[C@@H]4CC[C@@H](C)[C@H]4CC2(CO[C@@H]2O[C@H](C)[C@H]4OC(C)(C)OC4[C@@H]2O)C13C(=O)O (single isomer, unassigned) |
| 16 µg/mL (≈ 33.7 µM) | 0.015 µg/mL (≈ 0.0316 µM) | 0.015 µg/mL (≈ 0.0316 µM) | 0.03 µg/mL (≈ 0.0632 µM) | 0.03 µg/mL (≈ 0.0632 µM) | 0.25 µg/mL (≈ 0.527 µM) | 0.5 µg/mL (≈ 1.05 µM) | CC(C)C1=CC2CC3(C=O)[C@@H]4CC[C@@H](C)[C@H]4CC2(CO[C@H]2C[C@@H]4OCO[C@@H]4[C@@H](C)O2)C13C(=O)O (stereo partly specified) |
| 16 µg/mL (≈ 31.7 µM) | 2 µg/mL (≈ 3.96 µM) | 8 µg/mL (≈ 15.9 µM) | 2 µg/mL (≈ 3.96 µM) | 1 µg/mL (≈ 1.98 µM) | 125 µg/mL (≈ 248 µM) | 8 µg/mL (≈ 15.9 µM) | CC(C)C1=CC2CC3(C=O)[C@@H]4CC[C@@H](C)[C@H]4CC2(CO[C@H]2C[C@@H]4OC(=S)O[C@@H]4[C@@H](C)O2)C13C(=O)O (stereo partly specified) |
| 8 µg/mL (≈ 16.4 µM) | 1 µg/mL (≈ 2.05 µM) | 4 µg/mL (≈ 8.19 µM) | 2 µg/mL (≈ 4.09 µM) | 1 µg/mL (≈ 2.05 µM) | 2 µg/mL (≈ 4.09 µM) | 16 µg/mL (≈ 32.7 µM) | CC(C)C1=CC2CC3(C=O)[C@@H]4CC[C@@H](C)[C@H]4CC2(CO[C@H]2C[C@@H]4OC(=O)O[C@@H]4[C@@H](C)O2)C13C(=O)O (stereo partly specified) |
| 8 µg/mL (≈ 16.4 µM) | < 0.001 µg/mL |  | < 0.001 µg/mL | 0.004 µg/mL (≈ 0.00819 µM) | 0.03 µg/mL (≈ 0.0614 µM) | 31 µg/mL (≈ 63.4 µM) | CC1O[C@H]2[C@H](C[C@H](OCC34C[C@@H]5[C@H](C)CC[C@H]5C5(C=O)CC3C=C(C(C)C)C45C(=O)O)O[C@@H]2C)O1 (stereo partly specified) |
